# Experiments:
# [1] = test system: oligosaccharide biosynthesis in HL-60 cells; assay: Glycopeptide analysis by Con A-SEPHAROSE chromatography, HL-60 cells; type: cell-based, human
# [2] = test system: N-linked oligosaccharide processing of gp120 in CHO cells (α-glucosidases I and II); conditions: previously tested [Karlsson et al.]; cited from earlier work
# WEHI-3B cell lysosomes = assay: Transmission electron microscopy of lysosomes of CBE treated WEHI-3B cells; type: cell-based, murine; conditions: transmission electron microscopy (FIG. 6)
# [3] = test system: N-linked oligosaccharide processing of gp120 in CHO cells (α-glucosidases I and II); assay: Endo H sensitivity of gp120 expressed in CHO cells (N-linked oligosaccharide processing); type: cell-based, Chinese hamster; conditions: 0.5 mM or 5 mM (FIG. 7)
# Protocol: The arrows indicate the molecular weight of the untreated gp120 (120 kDa) and post endo H digestion (60 kDa). An additional band of low molecular weight (approximately 60 kDa) was present in some lanes and is a non-specific protein precipitated by the solid phase matrix.
# The culture of CHO cells expressing soluble recombinant gp120 (from Dr. P. Stevens, MRC AIDS Directed Programme Reagent Project) and the radiolabelling of these cells was carried out by conventional procedure as described by Karlsson et al., J. Biol. Chem. 268, 570-576 (1993). Briefly, CHO cells were harvested mechanically, washed three times with phosphate buffered saline, 0.1M pH 7.2 (PBS) and resuspended in methionine- and cysteine-free RPMI-1640 medium (ICN-Flow Laboratories, High Wycombe, Bucks, U.K.) supplemented with 1% dialysed FCS. Cells (10^7 /ml) were preincubated in the presence or absence of NB-DNJ or NB-DGJ for 1 hr prior to the addition of 100 μCi/ml Tran^35 S-label (ICN-Flow) for 4 hr. The supernatants were collected and concentrated tenfold using a 30 kDa cut-off membrane (Amicon, Danvers, Mass., U.S.A.).
# Immunoprecipitations were performed by conventional procedure as described by Karlsson supra. Supernatants were incubated with the mAb ABT 1001 monoclonal antibody (American Biotechnologies Inc., Cambridge, Mass., U.S.A.) at 0.5 μg/100 μl of supernatant for 30 min. at room temperature followed by sheep anti-mouse IgG1-coated magnetic beads (Dynal Ltd., Wirral, Merseyside, U.K., 1.2×10^7 beads per sample) for 1 hr. at 4° C. The beads were washed three times with 2% TRITON® X-100 in PBS and three times with PBS. Gp120 was eluted in […] reducing SDS-PAGE sample buffer with heating (95° C., 5 min.). Each sample was divided into two equal aliquots and 25 μl of dH2 O added to give a final volume of 50 μl. To one half of each sample 2 μl of endoglycosidase H (endo H, 1 unit/ml, Boehringer Mannheim Ltd., Lewes, Sussex, U.K.) was added and the other half left untreated. […]
# [4] = test system: glycolipid biosynthesis in HL-60 cells; assay: Inhibition of glycolipid biosynthesis in HL-60 cells, [14C]-palmitic acid labelling, 1D-TLC; type: cell-based, human;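 further: cells cultured 24 h with or without test compound, total cellular lipids resolved by one-dimensional TLC and detected by autoradiography, inhibition shown as missing Glc-Cer and gangliosides versus untreated cells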
# [5] = test system: glucocerebrosidase in WEHI-3B cells; conditions: WEHI-3B cells in the absence of CBE; cited from earlier work
# [6] = test system: glycolipid and phospholipid species in HL-60 cells; assay: 2D-TLC analysis of total HL-60 lipids labelled with [14C]-palmitic acid; type: cell-based, human; conditions: 2D-TLC (FIG. 2)
# Protocol: 2D-TLC separation was made of total HL-60 lipids labelled with [^14 C]-palmitic acid. Cells were treated with either 0.5 mM NB-DNJ or NB-DGJ or untreated (UT). Lipids were assigned as follows (untreated cells, lefthand panel, FIG. 2A): 1, gangliosides; 2, lysophospatidylcholine; 3, ceramide phosphorylcholine; 4, ceramide phosphorylethanolamine; 5, phospatidylcholine; 6, phosphatidylinositol; 7, phosphatidylethanolamine; 8, phosphatidylglycerol; 9, diglycosylceramide; 10, monoglycosylceramide; 11, cholesterol/fatty acids/neutral lipids; N and N* are unknowns; and 0 is the sample origin. Following NB-DNJ and NB-DGJ treatment (middle and righthand panels, FIGS. 2B and 2C, respectively) species 1 (gangliosides);9 (diglycosylceramide); 10 (monoglycosylceramide) and N* (unknown) were absent. The radiolabelled lipids were visualized by autoradiography.
# HL-60 cells were cultured by conventional procedure as previously described by Platt et al., Eur. J. Biochem. 208, 187-193 (1992). HL-60 cells at 5×10^4 cells/ml were cultured in the presence or absence of imino sugars for 24 hr. For labelling, the two dimensional thin layer chromatography (2D-TLC) conventional method of Butters and Hughes was followed [In Vitro 17, 831-838 (1981)]. Briefly, [^14 C]-palmitic acid (56.8 mCi/mmol, ICN/Flow) was added as a sonicated preparation in foetal calf serum (FCS, Techgen, London, U.K., 0.5 μCi/ml) and the cells cultured for a further 3 days maintaining the imino sugars in the medium. The cells were harvested, washed three times with phosphate buffered saline (PBS), extracted in 1 ml chloroform:methanol (2:1 v/v) and separated by 1 dimensional TLC, loading equal counts (1D-TLC, chloroform:methanol:water (65:25:4)). For two dimensional separations the one dimensional separation was performed as described above, the plate dried overnight under vacuum and separated in the second dimension using a solvent of tetrahydrofuran: dimethoxymethane:methanol:water (10:6:4:1). Plates were air dried and exposed to Hyperfilm-MP high performance autoradiography film (Amersham).
# α-glucosidase I = conditions: cell culture systems, Karlsson et al.; cited from earlier work
# [7] = test system: oligosaccharide biosynthesis in BW5147 cells; assay: Glycopeptide analysis by Con A-SEPHAROSE chromatography, BW5147 cells; type: cell-based, murine
# α-glucosidase I and II = assay: Inhibition of purified processing α-glucosidase I and II; type: biochemical; conditions: mixture of purified α-glucosidases I and II
# Protocol: Porcine liver α-glucosidase I and rat liver α-glucosidase II were purified to homogeneity and assayed by conventional procedure using a [^14 C]-glucose labelled Glc3 Man9 GlcNAc2 substrate as previously described by Karlsson et al., J. Biol. Chem. 268, 570-576 (1993).
# Enzymes were assayed according to procedure described hereinbefore using
# The data from FIG. 8 were […]
# [8] = test system: cholera toxin binding sites on H9 cells; type: cell-based, human; conditions: h9 cells, 4320 min
# [9] = molecular target: UDP-glucose:N-acylsphingosine glucosyltransferase; assay: Inhibition of UDP-glucose:N-acylsphingosine glucosyltransferase; type: biochemical, rat brain, mouse macrophage (WEHI-3B); conditions: rat brain or mouse macrophage homogenates; read-out: IC50
# HL-60 cells = assay: Cytotoxicity in the dose range tested; type: cell-based, human
# β-glucosidases = conditions: Legler & Pohl, 1986; cited from earlier work
smiles,measurement,setting,value
"CCCCN1C[C@H](O)[C@@H](O)[C@H](O)[C@H]1CO [NB-DNJ, N-Butyldeoxynojirimycin]",Total 3H-mannose recovered,[1]; HL-60,913095 cpm
same,Bi-antennary,"[1]; HL-60, percentage of radiolabelled glycopeptides eluted with 10 mM methylglucoside",20.0%
same,Oligo-mannose & hybrid,"[1]; HL-60, percentage of radiolabelled glycopeptides eluted with 500 mM methylmannoside",60.5%
same,Tetra- & Tri-antennary,"[1]; HL-60, percentage of radiolabelled glycopeptides non-bound",19.5%
same,glycopeptide profile by Con A-SEPHAROSE chromatography,[1]; HL-60 and BW5147,changes the affinity of glycopeptides
same,proportion of unbound glycans (tetra- and tri-antennary species),[1]; HL-60 and BW5147,decreases
same,proportion of high mannose/hybrid glycans tightly bound to Con A-SEPHAROSE,"[1]; HL-60 and BW5147, eluted with 500 mM methylmannoside",increase
same,endo H sensitivity of high mannose oligosaccharides on gp120,[2],fully sensitive to endo H
same,glycolipid accumulation in lysosomes,WEHI-3B cell lysosomes,prevented the glycolipid accumulation
same,endo H sensitivity of gp120 N-linked glycans,[3],fully endo H sensitive
same,lipid species whose biosynthesis was inhibited,"[4]; HL-60, 500 μM, 1D-TLC","inhibited the biosynthesis of Glc-Cer, gangliosides and an unknown lipid species"
same,inhibition of glycolipid biosynthesis,"[4]; HL-60, 500 μM, 1D-TLC (FIG. 1)",specifically inhibited glycolipid biosynthesis
same,effect of N-alkyl chain length on inhibition of glycolipid biosynthesis (loss of detectable Glc-Cer),"[4]; HL-60, 0.5 mM, 1D-TLC (FIG. 4)",completely inhibited glycolipid biosynthesis
same,minimal effective concentration,"[4]; Homo sapiens, HL-60, 1D-TLC (FIG. 3), partial inhibition, read-out: concentrations as low as which partial inhibition occurred",0.5 to 5 µM
same,Glc-Cer accumulation,[5],accumulated Glc-Cer
same,"gangliosides, unknown lipid (N*), mono and dihexaside species following treatment","[6]; HL-60, 0.5 mM",absent
same,depletion of glycolipid species,"[6]; HL-60, 500 μM",total depletion of glycolipid species
same,concentration for α-glucosidase I inhibition,α-glucosidase I,0.5 mM
same,Total 3H-mannose recovered,[7],686026 cpm
same,Bi-antennary,[7]; percentage of radiolabelled glycopeptides eluted with 10 mM methylglucoside,4.9%
same,Oligo-mannose & hybrid,[7]; percentage of radiolabelled glycopeptides eluted with 500 mM methylmannoside,68.3%
same,Tetra- & Tri-antennary,[7]; percentage of radiolabelled glycopeptides non-bound,26.8%
same,IC50,α-glucosidase I and II,0.36 µM
same,reduction in cholera toxin binding,[8],approximately 90%
same,IC50,[9],2.95 µM
same,cytotoxicity,HL-60 cells,non-cytotoxic
CCCCCCCN1C[C@H](O)[C@@H](O)[C@@H](O)[C@H]1CO [N-heptyldeoxygalactonojirimycin],affinity towards certain β-glucosidases,β-glucosidases,modest increase in the affinity
